{
  "source": "patent US11332467B2",
  "about": "“Solid state forms of palbociclib dimesylate” (PLANTEX LTD., priority 2016, dated 2022)",
  "experiment": "Specific surface area (SSA), BET nitrogen adsorption",
  "assay_type": "physicochemical",
  "conditions": "7 point BET in the range 0.05-0.20 P/Po, triplicate determination, Palbociclib Form A obtained by Example 6",
  "procedure": "Specific Surface Area (SSA) Method\nSSA measurement based on BET-nitrogen adsorption were carried out using a Micromeritics TriStar II Plus 3030 specific surface area analyzer together with Micromeritics VacPrep 061 degassing station.\nSoftware version: Microactive for TriStar II Plus v 2.03\nSample tube: ½″ round bottom cell with glass filler rods\nSample masses*: Approximately % full cell\nSample preparation: VacPrep 061, nitrogen stream\nOut gassing conditions: 16 hrs at 25° C. under vacuum\nIsothermal collection points: 11 point BET in the range 0.05-0.30 P/Po\nIsothermal data analysis range: 7 point BET in the range 0.05-0.20 P/Po\nOutgas test duration: 180 s\nEquilibration interval: 10 s\nEquilibration timeout: 600 s\nCalculations and Reporting: The specific surface area was reported in the range 0.05-0.20 P/Po using 7 point BET from a triplicate determination.",
  "data": [
    {"smiles": "CC(=O)c1c(C)c2cnc(Nc3ccc(N4CCNCC4)cn3)nc2n(C2CCCC2)c1=O", "note": "[Palbociclib, 6-Acetyl-8-cyclopentyl-5-methyl-2-[[5-(1-piperazinyl)-2-pyridinyl]amino]pyrido[2,3-d]pyrimidin-7(8H)-one]", "values": [
      {"measurement": "SSA (specific surface area)", "value": 4.9, "unit": "m^2/g"}
    ]}
  ]
}
